Legend:
Assay in all cases: biochemical
Design in all cases: Invitrogen kinase panel: Z'Lyte activity (ATP at Km) or LanthaScreen competitive ATP-site binding, percent inhibition
AKT1 = AKT1 (Homo sapiens, UniProt P31749)
ALK2 = target: T1, ALK2 (Homo sapiens, UniProt Q04771)
T1 construct: gene ACVR1

BrSK1 = BrSK1 (Homo sapiens, UniProt Q8TDC3)
CDK7/cyclinH = CDK7/cyclinH (Homo sapiens, UniProt P50613)
CDK8/cyclinC = CDK8/cyclinC (Homo sapiens, UniProt P49336)
CK1_alpha1 = target: T2, CK1_alpha1 (Homo sapiens, UniProt P48729)
T2 construct: gene CSNK1A1

CK1_gamma1 = target: T3, CK1_gamma1 (Homo sapiens, UniProt Q9HCP0)
T3 construct: gene CSNK1G1

CamKIV = target: T4, CamKIV (Homo sapiens, UniProt Q16566)
T4 construct: gene CAMK4

DNA-PK = target: T5, DNA-PK (Homo sapiens, UniProt P78527)
T5 construct: gene PRKDC

DRAK1 = target: T6, DRAK1 (Homo sapiens, UniProt Q9UEE5)
T6 construct: gene STK17A

DYRK4 = DYRK4 (Homo sapiens, UniProt Q9NR20)
EGFR = EGFR (Homo sapiens, UniProt P00533)
EphB3 = EphB3 (Homo sapiens, UniProt P54753)
Flt4 = Flt4 (Homo sapiens, UniProt P35916)
MKNK2 = MKNK2 (Homo sapiens, UniProt Q9HBH9)
MLK2 = target: T7, MLK2 (Homo sapiens, UniProt Q02779)
T7 construct: gene MAP3K10

Mink1 = Mink1 (Homo sapiens, UniProt Q8N4C8)
RIPK2 = RIPK2 (Homo sapiens, UniProt O43353)
SIK2 = SIK2 (Homo sapiens, UniProt Q9H0K1)
TGFBR1 = TGFBR1 (Homo sapiens, UniProt P36897)
TXK = TXK (Homo sapiens, UniProt P42681)
TrkB = target: T8, TrkB (Homo sapiens, UniProt Q16620)
T8 construct: gene NTRK2

WNK2 = WNK2 (Homo sapiens, UniProt Q9Y3S1)
p38_alpha(direct) = target: T9, p38_alpha(direct) (Homo sapiens, UniProt Q16539)
T9 construct: gene MAPK14; direct

p38_delta = target: T10, p38_delta (Homo sapiens, UniProt O15264)
T10 construct: gene MAPK13

CDK7/cyclinH, sequence (P50613 whole entry): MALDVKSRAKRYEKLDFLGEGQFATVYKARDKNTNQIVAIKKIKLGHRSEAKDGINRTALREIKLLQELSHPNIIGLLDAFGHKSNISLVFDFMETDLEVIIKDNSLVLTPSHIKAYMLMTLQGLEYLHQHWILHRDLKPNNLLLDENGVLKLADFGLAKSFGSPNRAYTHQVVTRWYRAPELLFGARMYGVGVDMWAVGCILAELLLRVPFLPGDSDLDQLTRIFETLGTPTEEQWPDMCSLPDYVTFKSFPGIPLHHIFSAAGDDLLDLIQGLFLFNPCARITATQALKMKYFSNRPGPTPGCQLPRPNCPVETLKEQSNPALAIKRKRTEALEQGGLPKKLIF
CDK7/cyclinH, sequence (P51946 whole entry partner): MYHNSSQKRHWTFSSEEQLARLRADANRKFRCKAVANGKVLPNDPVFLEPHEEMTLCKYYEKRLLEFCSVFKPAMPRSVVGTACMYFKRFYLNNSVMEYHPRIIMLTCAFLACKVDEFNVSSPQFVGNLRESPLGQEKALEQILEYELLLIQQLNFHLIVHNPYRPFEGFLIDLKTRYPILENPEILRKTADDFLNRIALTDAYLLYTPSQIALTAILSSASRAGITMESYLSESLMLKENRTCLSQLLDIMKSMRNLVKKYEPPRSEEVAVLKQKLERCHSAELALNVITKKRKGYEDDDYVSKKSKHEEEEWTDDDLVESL
T7 sequence (Q02779 whole entry): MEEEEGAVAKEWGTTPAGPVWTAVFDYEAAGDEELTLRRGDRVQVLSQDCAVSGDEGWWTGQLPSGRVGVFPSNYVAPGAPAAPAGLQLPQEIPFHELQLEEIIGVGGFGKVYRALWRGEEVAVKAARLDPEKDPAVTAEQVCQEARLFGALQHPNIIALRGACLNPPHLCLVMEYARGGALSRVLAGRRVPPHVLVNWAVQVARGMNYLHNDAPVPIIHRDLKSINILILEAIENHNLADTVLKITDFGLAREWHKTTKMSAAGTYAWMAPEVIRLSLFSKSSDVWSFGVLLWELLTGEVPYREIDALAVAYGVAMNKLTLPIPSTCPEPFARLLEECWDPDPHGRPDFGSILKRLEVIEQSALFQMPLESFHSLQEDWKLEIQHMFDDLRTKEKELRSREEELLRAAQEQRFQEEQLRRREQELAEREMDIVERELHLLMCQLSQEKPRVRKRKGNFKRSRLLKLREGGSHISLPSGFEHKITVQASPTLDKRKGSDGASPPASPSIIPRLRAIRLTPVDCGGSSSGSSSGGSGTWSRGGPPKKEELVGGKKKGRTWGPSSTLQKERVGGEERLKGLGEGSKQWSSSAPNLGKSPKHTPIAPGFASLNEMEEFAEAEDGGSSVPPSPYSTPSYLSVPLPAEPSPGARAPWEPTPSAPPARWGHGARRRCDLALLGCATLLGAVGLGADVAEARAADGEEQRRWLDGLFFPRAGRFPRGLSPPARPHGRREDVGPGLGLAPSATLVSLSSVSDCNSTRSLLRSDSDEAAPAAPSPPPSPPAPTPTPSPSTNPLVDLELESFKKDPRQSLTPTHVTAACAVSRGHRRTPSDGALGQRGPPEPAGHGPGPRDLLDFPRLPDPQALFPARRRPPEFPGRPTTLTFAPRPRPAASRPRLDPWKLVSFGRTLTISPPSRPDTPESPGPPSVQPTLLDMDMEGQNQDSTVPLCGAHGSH
WNK2, sequence (Q9Y3S1 whole entry): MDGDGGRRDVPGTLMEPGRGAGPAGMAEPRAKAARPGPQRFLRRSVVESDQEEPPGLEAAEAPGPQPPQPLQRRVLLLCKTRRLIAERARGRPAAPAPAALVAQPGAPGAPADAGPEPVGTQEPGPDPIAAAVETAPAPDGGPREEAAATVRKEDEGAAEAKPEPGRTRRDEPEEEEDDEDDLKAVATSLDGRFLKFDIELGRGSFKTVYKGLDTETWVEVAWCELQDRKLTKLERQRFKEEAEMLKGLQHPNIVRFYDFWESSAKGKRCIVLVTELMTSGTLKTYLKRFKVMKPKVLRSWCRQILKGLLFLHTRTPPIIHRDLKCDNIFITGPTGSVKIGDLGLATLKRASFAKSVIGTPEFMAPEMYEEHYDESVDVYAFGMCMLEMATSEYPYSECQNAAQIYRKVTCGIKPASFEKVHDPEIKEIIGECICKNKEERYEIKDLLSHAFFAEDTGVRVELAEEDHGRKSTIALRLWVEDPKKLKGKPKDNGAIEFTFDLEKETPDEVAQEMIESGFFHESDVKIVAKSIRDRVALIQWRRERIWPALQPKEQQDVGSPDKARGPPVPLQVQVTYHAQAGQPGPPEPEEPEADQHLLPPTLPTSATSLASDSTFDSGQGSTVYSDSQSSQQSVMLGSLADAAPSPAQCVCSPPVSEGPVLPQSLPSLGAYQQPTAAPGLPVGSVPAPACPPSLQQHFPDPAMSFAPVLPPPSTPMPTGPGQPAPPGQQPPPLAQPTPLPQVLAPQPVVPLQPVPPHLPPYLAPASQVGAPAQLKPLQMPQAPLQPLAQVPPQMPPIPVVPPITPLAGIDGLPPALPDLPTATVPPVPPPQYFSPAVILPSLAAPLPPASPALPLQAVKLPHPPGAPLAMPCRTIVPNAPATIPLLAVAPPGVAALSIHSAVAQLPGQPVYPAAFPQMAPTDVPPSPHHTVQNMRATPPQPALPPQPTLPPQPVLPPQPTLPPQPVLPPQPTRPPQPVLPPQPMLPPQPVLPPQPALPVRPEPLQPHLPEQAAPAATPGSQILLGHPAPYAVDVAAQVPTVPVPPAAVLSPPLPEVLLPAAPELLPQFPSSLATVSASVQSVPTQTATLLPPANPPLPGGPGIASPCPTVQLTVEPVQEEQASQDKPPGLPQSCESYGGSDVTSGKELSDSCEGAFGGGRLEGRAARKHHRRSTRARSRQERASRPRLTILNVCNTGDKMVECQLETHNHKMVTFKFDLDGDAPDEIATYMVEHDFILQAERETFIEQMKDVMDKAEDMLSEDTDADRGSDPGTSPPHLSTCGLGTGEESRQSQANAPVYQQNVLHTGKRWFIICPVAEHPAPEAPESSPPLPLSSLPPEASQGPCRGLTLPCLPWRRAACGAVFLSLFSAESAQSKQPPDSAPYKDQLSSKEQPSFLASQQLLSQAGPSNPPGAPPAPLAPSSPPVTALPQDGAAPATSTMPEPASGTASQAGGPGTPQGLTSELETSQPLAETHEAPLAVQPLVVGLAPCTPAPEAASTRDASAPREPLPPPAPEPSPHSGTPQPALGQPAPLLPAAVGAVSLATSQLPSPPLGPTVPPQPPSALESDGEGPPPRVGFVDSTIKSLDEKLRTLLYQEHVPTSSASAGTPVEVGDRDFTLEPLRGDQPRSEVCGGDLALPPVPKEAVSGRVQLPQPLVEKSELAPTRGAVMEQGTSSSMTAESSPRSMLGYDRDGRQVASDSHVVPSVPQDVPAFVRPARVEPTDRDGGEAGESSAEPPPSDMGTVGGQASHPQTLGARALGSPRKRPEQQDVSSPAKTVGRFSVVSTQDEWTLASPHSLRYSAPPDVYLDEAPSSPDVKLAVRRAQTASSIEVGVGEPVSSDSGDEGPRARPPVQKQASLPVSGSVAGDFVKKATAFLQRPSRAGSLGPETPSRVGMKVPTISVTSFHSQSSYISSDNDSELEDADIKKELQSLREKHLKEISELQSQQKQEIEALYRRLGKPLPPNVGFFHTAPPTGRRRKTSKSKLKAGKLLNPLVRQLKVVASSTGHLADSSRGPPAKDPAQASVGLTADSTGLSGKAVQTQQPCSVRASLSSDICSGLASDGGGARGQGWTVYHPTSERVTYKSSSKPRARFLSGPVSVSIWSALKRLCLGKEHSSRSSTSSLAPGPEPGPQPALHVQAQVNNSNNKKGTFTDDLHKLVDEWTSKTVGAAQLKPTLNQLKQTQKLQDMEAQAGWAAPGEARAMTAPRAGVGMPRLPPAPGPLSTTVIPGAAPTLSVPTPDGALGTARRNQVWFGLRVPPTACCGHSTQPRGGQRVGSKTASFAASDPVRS
EphB3, sequence (P54753 whole entry): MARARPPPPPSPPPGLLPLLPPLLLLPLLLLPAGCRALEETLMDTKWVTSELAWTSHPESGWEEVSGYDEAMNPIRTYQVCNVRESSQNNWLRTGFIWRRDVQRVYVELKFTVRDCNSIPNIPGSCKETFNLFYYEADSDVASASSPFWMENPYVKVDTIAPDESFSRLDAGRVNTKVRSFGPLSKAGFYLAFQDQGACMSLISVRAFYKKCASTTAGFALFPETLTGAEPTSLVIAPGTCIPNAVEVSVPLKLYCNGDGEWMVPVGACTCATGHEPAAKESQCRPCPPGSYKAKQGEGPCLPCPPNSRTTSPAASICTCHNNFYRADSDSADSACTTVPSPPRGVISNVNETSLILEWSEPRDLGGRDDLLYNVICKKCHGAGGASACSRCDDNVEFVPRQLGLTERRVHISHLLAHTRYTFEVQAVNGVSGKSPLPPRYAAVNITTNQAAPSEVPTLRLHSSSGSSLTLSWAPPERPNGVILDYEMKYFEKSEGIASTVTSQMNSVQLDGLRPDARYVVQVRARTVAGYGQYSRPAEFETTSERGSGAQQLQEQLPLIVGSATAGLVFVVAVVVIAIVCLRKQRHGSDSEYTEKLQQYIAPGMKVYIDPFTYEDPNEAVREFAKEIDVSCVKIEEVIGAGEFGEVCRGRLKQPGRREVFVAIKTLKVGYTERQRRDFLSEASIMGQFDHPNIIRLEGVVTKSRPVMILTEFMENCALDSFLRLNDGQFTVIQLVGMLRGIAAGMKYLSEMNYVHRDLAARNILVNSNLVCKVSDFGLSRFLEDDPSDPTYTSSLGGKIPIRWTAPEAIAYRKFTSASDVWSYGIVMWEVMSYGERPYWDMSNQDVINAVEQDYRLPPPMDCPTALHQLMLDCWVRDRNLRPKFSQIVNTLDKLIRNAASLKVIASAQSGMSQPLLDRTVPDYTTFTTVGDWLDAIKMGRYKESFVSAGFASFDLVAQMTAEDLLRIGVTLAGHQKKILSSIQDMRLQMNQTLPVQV

| SMILES | inhibition at 1 µM (AKT1) | inhibition at 1 µM (ALK2) | inhibition at 1 µM (BrSK1) | inhibition at 1 µM (CDK7/cyclinH) | inhibition at 1 µM (CDK8/cyclinC) | inhibition at 1 µM (CK1_alpha1) | inhibition at 1 µM (CK1_gamma1) | inhibition at 1 µM (CamKIV) | inhibition at 1 µM (DNA-PK) | inhibition at 1 µM (DRAK1) | inhibition at 1 µM (DYRK4) | inhibition at 1 µM (EGFR) | inhibition at 1 µM (EphB3) | inhibition at 1 µM (Flt4) | inhibition at 1 µM (MKNK2) | inhibition at 1 µM (MLK2) | inhibition at 1 µM (Mink1) | inhibition at 1 µM (RIPK2) | inhibition at 1 µM (SIK2) | inhibition at 1 µM (TGFBR1) | also measured |
| --- | --- | --- | --- | --- | --- | --- | --- | --- | --- | --- | --- | --- | --- | --- | --- | --- | --- | --- | --- | --- | --- |
| CCOC(=O)Nc1cccc2c(Oc3ncccc3-c3ccnc(N[C@H]4CCCNC4)n3)c(C)ccc12 [G-1749] | -16.5% | 1% | 6.5% | 4.5% | 2.5% | -1.5% | -1.5% | -1.5% | 6.5% | 0% | 2.5% | -6% | 3% | 5.5% | 3.5% | 0.5% | 25% | 13.5% | -16.5% | 5.5% | inhibition at 1 µM (TXK): 2%; inhibition at 1 µM (TrkB): 0.5%; inhibition at 1 µM (WNK2): -1%; inhibition at 1 µM (p38_alpha(direct)): 77.5%; inhibition at 1 µM (p38_delta): 11.5% |
| CC#CC(=O)Nc1cccc2c(Oc3ncccc3-c3ccnc(N[C@H]4CCCNC4)n3)c(C)ccc12 [G-7658] | -13.5% | 0.5% | 4.5% | 7.5% | 2% | -0.5% | 9% | -2.5% | 11% | -4% | 1% | -9% | 4.5% | 6.5% | -2% | 4% | 4% | 27.5% | 6% | 7.5% | inhibition at 1 µM (TXK): 2%; inhibition at 1 µM (TrkB): 0.5%; inhibition at 1 µM (WNK2): -2.5%; inhibition at 1 µM (p38_alpha(direct)): 36.5%; inhibition at 1 µM (p38_delta): 13.5% |
